Consider 4 compounds from patent US5066644A, “Derivatives of thiazolidine-4-carboxylic acid, its preparation and pharmaceutical compositions containing it” (Poli Industria Chimica S.p.A., priority 1989, dated 1991).

Non-standard residues stand in square brackets, D forms with d. Residues, ends and D or L forms follow the SMILES beside them. ξ: configuration not given here. *: point of attachment. pGlu = O=C1CC[C@@H](C(=O)O)N1; Morpholide = C1CN(*)CCO1; ξThz = O=C(O)C1CSCN1

Type in all cases: in vivo
The subject of assay [1] is peritoneal macrophages. Briefly: Superoxide anion production by peritoneal macrophages from prednisolone-immunodepressed mice. The settings on record: 200 mg/kg/die i.p. + prednisolone 0,5 mg/kg/die/s.c.; macrophages stimulated with phorbol myristate acetate. The source says:
Since the production of superoxide anion (O2 ) plays an important role in the microbicidal activity of macrophages (N. P. Cumming, M. J. Pabst, J.Exp.Med., 152, 1649, 1980), the showing of a stimulation of the superoxide anion in the macrophages by drugs provides a very important test for the evaluation of immunostimulating activity. The production of O2 in peritoneal macrophages isolated from prednisolone immunodepressed animals treated with the compounds of the invention was therefore evaluated. The mice were treated subcutaneously for two days with 0.5 mg/kg/day of prednisolone and with the compounds under examination at the dose of 100 mg/kg twice a day, whereas the morning of the animals sacrifice the animals received the compounds only. The macrophages were then isolated by means of a peritoneal washing and cultured in RPMI-1640 added with 10% foetal calf serum, at the concentration of 1×10^6 cells/ml at the temperature of ±37° C. Amounts of 1 ml of cell suspension were incubated for 15' at 37° C. with horse heart cytochrome C and stimulated with phorbol myristate acetate (H. Nielsen, Eur.J.Clin.Pharmacol., 30, 90, 1986). A specrophotometric determination at λ=550 nm of the reduced ferricytochroma using an extinction coefficient E(550)=29.5 mM was then carried out. As it turns out from Table 1, the prednisolone treatment induces an immunosuppression resulting in a lesser production of superoxide anion; the contemporaneous treatment with the compounds of the invention stimulates the 02 production by macrophages up to values close to those of control animals. The compounds have an activity which is from similar to higher than that of PGT at equiponderal doses.

The subject of assay [2] is E. coli. Briefly: Endoperitoneal E. coli infection in mice. The settings on record: 200 mg/kg/die os; for N° dead mice/N° treated mice: death-rate recorded 7-8 days after infection. On the procedure:
The compounds were tested in endoperitoneal infection in mice. Male COBS CD-1 mice weighing 22-25 g were inoculated i.p. with 0.5 ml/mouse of a pathogenic E.coli suspension (in saline solution+0.5% porcine gastric mucine), having a transmittance of about 50%. The mice were treated orally with the compounds twice a day from two days before until the day of the infection, 7 hours before the inoculation.
The death-rate was recorded for about 7-8 days after the infection.

Assay [3] deals with delayed hypersensitivity by DNCB. Briefly: Delayed hypersensitivity induced by DNCB in prednisolone-immunodepressed mice. The settings on record: 200 mg/kg/die os; for Weight left ear/Weight right ear: 24 hours after challenge; for Increase %: vs. control group. On the procedure: Male COBS CD-2 mice weighing about 30 g were sensitized with 25 μl of dinitrochlorobenzene (DNCB) at the concentration of 20 mg/ml in acetone applied on a zone of the abdomen depilated at least 2 hours before.
After 12 hours the animals were challenged with 5 μl of DNCB at the concentration of 10 mg/ml in acetone applied on the external surface of the left auricolar pinna.
In order to carry out this operation the mice were slightly anesthetized with ether. The mice were treated with the compounds under examination from two days before until the day of sensitization and with the compounds and with prednisolone (0.5 mg/kg/die s.c.; 0.5 ml/10 g) from the tenth day after sensitization until the day when challenge occurred.
The animals were killed 24 hours after the challenge; both ears were cut and weighed. The values are expressed as the ratio between the left ear (sensitized) and the right one (unsensitized). […] The increase was higher than that obtained after oral administration of PGT.

Assay [4] relates to rosette forming cells. The experiment in a line: Rosette forming cells (primary response) in prednisolone-immunodepressed mice. The settings on record: 200 mg/kg/die os; for Rosette forming cells change %: vs. control group. On the procedure: The compounds of the invention are also active in the test of the rosette forming cells (primary response; II° type) in prednisolone immunodepressed mice (S. D. Wilson, Immunology, 21, 233, 1971).
Male COBS CD-1 mice weighing about 25 g were treated for 7 days twice a day, with the compounds of the invention and at the second and third day with prednisolone at the dose of 5 mg/kg/s.c. (0.05 ml/10 g).
After 4 days from the start of the treatment the
10 animals were immunized with 5×10^8 sheep red blood cells in 0.2 ml of PBS by intraperitoneal route. The red blood cells were prepared by centrifugating the citrated sheep blood at 1500 rpm for 15 min.; the precipitated red blood cells were washed twice at 1200 rpm for 10 min. in PBS removing the first layer, then suspended again in PBS and counted adjusting at 2.5×10^9 cells/ml.
After 6 days from the immunization the rosette test was carried out by killing the mice and removing the spleen, which was placed in 1 ml of Hank solution in ice-bath and then triturated, homogenated and gauze-filtered. The homogenate was washed twice in Hank, centrifugating at 1200 rpm for 10 min. and then suspended again. The suspension was adjusted to 6×10^7 cells/ml by counting at the Coulter Counter after lysis of the red blood cells. 100 μl of spleen cells suspension (6×10^7 /ml)+100 μl of red blood cells suspension (3×10^8 /ml) were mixed in 0.8 ml of Hank stirring slightly for 1 minute. The samples were incubated for 24 h at+4° C. avoiding any stirring. The samples were then stirred and the number of rosette forming cells/ml was evaluated by means of the Burker apparatus.

For assay [5], the system named is reticulo-endothelial system. Briefly: Activity of the reticulo-endothelial system (colloidal charcoal clearance) in cyclophosphamide-immunodepressed mouse. The settings on record: 100 mg/kg/die i.p.; for Absorbance Δ (0'-20'): means ± SE of 10 mice, absorbance at 640 nm. On the procedure: The compounds of the invention are also active in the test of the activity of the reticulo-endothelial system in the mouse immunodepressed by cyclophosphamide (Biozzi G. et al., Brit. J. Path., 34, 441, 1953). COBS CD-1 mice were injected i.v. with colloidal charcoal (0.32 ml of china ink/ml of saline), 10 μl of retroorbital blood were then taken out immediately before and after 1, 10 and 20 min. from the intravenous injection, the blood sample was placed in 3 ml of HCl 0.1 N and the absorbance was evaluated at 640 nm and the change of absorbance was evaluated between the time 0 and 20 min. The animals were treated with cyclophosphamide (100 mg/kg i.p.) from the third to the fifth day of treatment and with the compounds under test for 10 consecutive days; the day after the last treatment the test was carried out.

As to `NC(=O)C1CSCN1C(=O)[C@@H]1CCC(=O)N1` (stereo partly drawn) [Ia, 3-Pyroglutamyl-thiazolidine-4-carboxamide] ([pGlu]-[ξThz]-NH2), the “nmol cytochrome C reduced/1 × 10^6 macrophages (mean ± S.E.)” value in assay [1] is 9.25 ± 0.48 nmol cytochrome C reduced/1 ×. In addition, in assay [2], the “Protection (%)” value is on record as 40% and the “N° dead mice/N° treated mice” value was 6/10. Besides, in assay [3], the “Weight left ear/Weight right ear” value came to 1.688 ± 0.029 and the Increase % was 27.68%. In assay [4], the “Rosette forming cells/spleen cells %” value is given as 1.140 ± 0.032% and the “Rosette forming cells change %” value is “+34.12%”. In assay [5], the “Variation versus the cyclophosphamide treated group %” value is reported as “+15.62%” and the “Absorbance Δ (0'-20')” value came to 0.370 ± 0.013.

Consider `CCNC(=O)C1CSCN1C(=O)[C@@H]1CCC(=O)N1` (stereo partly drawn) [Ic, N-(3-pyroglutamyl-thiazolidine-4-carbonyl)-ethylamine] ([pGlu]-[ξThz]-NHEt), for which the “nmol cytochrome C reduced/1 × 10^6 macrophages (mean ± S.E.)” value in assay [1] is 7.83 ± 0.72 nmol cytochrome C reduced/1 ×. Also, in assay [2], the “Protection (%)” value is 40% and the “N° dead mice/N° treated mice” value is given as 6/10. Further, in assay [3], the “Weight left ear/Weight right ear” value is reported as 1.706 ± 0.028 and the Increase % worked out at 29.05%. In addition, in assay [4], the “Rosette forming cells/spleen cells %” value is 1.145 ± 0.032% and the “Rosette forming cells change %” value was “+34.71%”. Further, in assay [5], the “Variation versus the cyclophosphamide treated group %” value is “+15.94%” and the “Absorbance Δ (0'-20')” value is reported as 0.371 ± 0.016.

As to `O=C1CC[C@@H](C(=O)N2CSCC2C(=O)O)N1` (stereo partly drawn) [PGT, 3-pyroglutamyl-thiazolidine-4-carboxylic acid, reference compound] ([pGlu]-[ξThz]-OH), in assay [1], the “nmol cytochrome C reduced/1 × 10^6 macrophages (mean ± S.E.)” value is listed as 8.85 ± 0.75 nmol cytochrome C reduced/1 ×. In assay [2], the “Protection (%)” value came out at 20% and the “N° dead mice/N° treated mice” value is 8/10. Moreover, in assay [3], the “Weight left ear/Weight right ear” value was 1.579 ± 0.027 and the Increase % was determined as 19.44%. In assay [4], the “Rosette forming cells/spleen cells %” value is listed as 1.125 ± 0.040% and the “Rosette forming cells change %” value was “+32.35%”. For the same compound, in assay [5], the “Variation versus the cyclophosphamide treated group %” value was “+14.06%” and the “Absorbance Δ (0'-20')” value was found to be 0.365 ± 0.018.

As to `O=C1CC[C@@H](C(=O)N2CSCC2C(=O)N2CCOCC2)N1` (stereo partly drawn) [Ib, N-(3-Pyroglutamyl-thiazolidine-4-carbonyl)morpholine] ([pGlu]-[ξThz]-Morpholide), the “nmol cytochrome C reduced/1 × 10^6 macrophages (mean ± S.E.)” value in assay [1] is recorded as 9.62 ± 0.63 nmol cytochrome C reduced/1 ×. Besides, in assay [2], the “Protection (%)” value came out at 40% and the “N° dead mice/N° treated mice” value is 6/10. For the same compound, in assay [3], the “Weight left ear/Weight right ear” value came to 1.702 ± 0.026 and the Increase % amounted to 28.74%. Moreover, in assay [4], the “Rosette forming cells/spleen cells %” value is on record as 1.138 ± 0.038% and the “Rosette forming cells change %” value is on record as “+33.88%”. In assay [5], the “Variation versus the cyclophosphamide treated group %” value was “+19.37%” and the “Absorbance Δ (0'-20')” value came out at 0.382 ± 0.021.
